From patent US5965537A, “Dolastatin 15 derivatives with carbonyl and heterocyclic functionalities at the C-terminus” (BASF Aktiengesellschaft, priority 1997, dated 1999)

Tested on: HT-29 colon carcinoma cells
Test: Cytotoxicity, microculture tetrazolium assay (MTT), HT-29 cell system
Type: cell-based
Conditions: 48 hours incubation, T/C of 50% growth inhibition
Experimental: Cytotoxicity was measured using standard methodology for adherent cell lines, such as the microculture tetrazolium assay (MTT). Details of this assay have been published (Alley, M. C., et al., Cancer Research, 48: 589-601,(1988)). Exponentially growing cultures of HT-29 colon carcinoma cells were used to make microtiter plate cultures. Cells were seeded at 5000-20,000 cells per well in 96-well plates (in […] of media), and grown overnight at 37° C. Test compounds were added, in 10-fold dilutions varying from 10^-4 M to 10^-10 M. Cells were then incubated for 48 hours. To determine the number of viable cells in each well, the MTT dye was added ([…] of a 3 mg/ml solution of 3-(4,5-dimethylthiazol-2-yl)-2,5-diphenyltetrazolium bromide in saline). This mixture was incubated at 37° C. for 5 hours, and then […] of 25% SDS, pH 2, was added to each well. After an overnight incubation, the absorbance of each well at 550 nm was read using an ELISA reader. The values for the mean ±SD of data from replicated wells were calculated, using the formula % T/C (% viable cells treated/control). The concentration of test compound which gives a T/C of 50% growth inhibition was designated as the IC50.
Table 9, below, presents the IC50 values determined in the HT-29 cell system: […]
For “2-[(S)-(Me2 Val-Val-MeVal-Pro-pyrorolidin-2-yl)]-5-phenyloxazole [III-12]”, the IC50 was 900 nM.
Molecule “2-[(S)-(Me2 Val-Val-MeVal-Pro-pyrrolidin-2-yl)]-3,4-dimethyl-thiazole [III-28]” has an IC50 of 400 nM.
Work on CC(=O)[C@@H]1CCCN1C(=O)[C@@H]1CCCN1C(=O)[C@H](C(C)C)N(C)C(=O)[C@@H](NC(=O)[C@H](C(C)C)N(C)C)C(C)C [Compound I-1, (S)-(Me2 Val-Val-MeVal-Pro-pyrrolidin-2-yl)-methylketone] yielded an IC50 greater than 1000 nM.
Molecule CCCCC(=O)[C@@H]1CCCN1C(=O)[C@@H]1CCCN1C(=O)[C@H](C(C)C)N(C)C(=O)[C@@H](NC(=O)[C@H](C(C)C)N(C)C)C(C)C [Compound I-5, (S)-(Me2 Val-Val-MeVal-Pro-pyrrolidin-2-yl)butylketone] has an IC50 greater than 1000 nM.
With COCC(=O)[C@@H]1CCCN1C(=O)[C@@H]1CCCN1C(=O)[C@H](C(C)C)N(C)C(=O)[C@@H](NC(=O)[C@H](C(C)C)N(C)C)C(C)C [Compound I-12, (S)-(Me2 Val-Val-MeVal-Pro-pyrrolidin-2-yl)methoxy-methylketone] the IC50 was 400 nM.
For COc1ccc(C(=O)[C@@H]2CCCN2C(=O)[C@@H]2CCCN2C(=O)[C@H](C(C)C)N(C)C(=O)[C@@H](NC(=O)[C@H](C(C)C)N(C)C)C(C)C)cc1 [Compound I-22, (S)-(Me2 Val-Val-MeVal-Pro-pyrrolidin-2-yl)-(4-methoxyphenyl) ketone], the IC50 was greater than 1000 nM.
With CC(C)[C@H](NC(=O)[C@H](C(C)C)N(C)C)C(=O)N(C)[C@H](C(=O)N1CCC[C@H]1C(=O)N1CCC[C@H]1C(=O)c1ccc(F)cc1)C(C)C [Compound I-32, (S)-(Me2Val-Val-MeVal-Pro-pyrrolidin-2-yl)-(4-fluorophenyl) ketone] the IC50 was greater than 1000 nM.
For “(S)-(Me2Val-Val-MeVal-Pro-pyrrolidin-2-yl)-trifluoromethyl-ketone [Compound I-54]”, the IC50 was greater than 1000 nM.

Tested on: P388 lymphocytic leukemia (PS system) cell line
Test: not given
Conditions: cited from earlier work
For Dolastatin 15, the “inhibition of growth of P388 lymphocytic leukemia cell line” value is given as “markedly inhibits the growth”.

Tested on: not given
Test: not given
Conditions: synthetic Dolastatin 15; cited from earlier work
For Dolastatin 15, the “solubility in aqueous systems” value is given as “poor solubility in aqueous systems”.
